Read-outs that look alike come from different tables or passages of the source.
Key:
U2OS cells = assay: Cell count in U2OS Cell Painting images; assay type: cell-based, human; conditions: U2OS Cell Painting
How it was run: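 Compound-treated U2OS cells were stained with six fluorescent labels and imaged, and morphological profiles were standardized plate-wise against controls. Replicate profiles were averaged into signatures. Compound and gene-overexpression signatures were matched by Pearson correlation.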

YAP1 mRNA = conditions: cited from earlier work
TAZ = conditions: HT29 cells, six hours; cited from earlier work
STS-109 human UPS cells = assay: Proliferation assay, STS-109 cells; assay type: cell-based; conditions: 10 μM daily
Text: (§1) YAP1 cell culture and treatments: Eisinger lab: Murine KP230 cells, a Yap1-dependent cancer cell line, were derived from a tumor from the KP mouse model (Kras^G12/D; Trp53^f/fl), as described in Eisinger-Mathason, T. S. K. et al., Proc. Natl. Acad. Sci. U.S.A 112 (2015): E3402-11, which is hereby incorporated by reference in its entirety. STS-109 UPS cells were derived from a human UPS tumor and validated by Rebecca Gladdy, MD (Sinai Health System, Toronto, Ontario, Canada). TC32 cells were a gift from Patrick Grohar, MD, PhD (Children's Hospital of Philadelphia). HT-1080, HCT-116, and HEK293T cells were purchased from ATCC. KP230, HT-1080, and HEK-293T cells were grown in DMEM with 10% FBS, 1% L-glutamine, and 1% penicillin/streptomycin (P/S). STS-109 cells were cultured in DMEM with 20% FBS, 1% L-glutamine, and 1% P/S. TC32 cells were grown in RPMI with 10% FBS, 1% L-glutamine, and 1% P/S. HCT-116 cells were cultured in McCoy's 5A medium with 10% FBS and 1% P/S. All cells were confirmed to be negative for mycoplasma contamination and were maintained in an incubator at 37C with 5% CO2. […]
(§2) NB4A treatment: Cells were treated with 10 μM of each inhibitor or an equivalent volume of DMSO every 24 hours for 3-8 days, and counted with a hemocytometer with trypan blue exclusion daily (KP230, HT-1080, TC32, HCT-116), or every 2 days (STS-109).

[1] = tested on: TC32 human Ewing's family sarcoma cells; assay: Proliferation assay, TC32 cells; assay type: cell-based; conditions: 10 μM daily for 72 hours
Text: as §1, §2

[2] = tested on: HT-1080 fibrosarcoma cells; assay: Proliferation assay, HT-1080 cells; assay type: cell-based, human; conditions: 10 μM daily for 72 hours
Text: as §1, §2

KP230 cells = assay: qRT-PCR of Yap1 and target genes in KP230 cells; assay type: cell-based, mouse
Text: as §1, with “(P/S).” for “(P/S). STS-109 cells were cultured in DMEM with 20% FBS, 1% L-glutamine, and 1% P/S. TC32 cells were grown in RPMI with 10% FBS, 1% L-glutamine, and 1% P/S. HCT-116 cells were cultured in McCoy's 5A medium with 10% FBS and 1% P/S. All cells were confirmed to be negative for mycoplasma contamination and were maintained in an incubator at 37C with 5% CO2.”
YAP1-related qRT-PCR: Total RNA from cultured cells was isolated with the QIAGEN RNeasy mini kit, and cDNA was synthesized with the High-Capacity RNA-to-cDNA kit (Life Technologies). qRT-PCR analysis was performed with TaqMan “best coverage” probes on a ViiA7 instrument. […] Relative expression was calculated using the ddCt method.

YAP1 = YAP1 immunofluorescence in H9 cells; assay type: cell-based, human; conditions: 10 μM, 24 hours
Description: H9 hPSCs (WiCell) were maintained on vitronectin (Thermo Fisher)-coated plates in Essential 8 (E8) medium. The cells were routinely passaged using 0.5 mM EDTA and treated with 5 μM Y-27632 dihydrochloride (Tocris) on the first day. For testing the effects of the small molecules, H9 hPSCs were seeded at 50K cells/cm^2 on vitronectin-coated plates in E8 medium supplemented with 5 μM Y-27632 dihydrochloride (day 0). On day 1, the medium was switched to E8 medium. On day 2, the medium was switched to E8 medium supplemented with the small molecules. Following overnight incubation, the cells were collected for subsequent analysis on day 3.
The cells were fixed with 4% formaldehyde for 15 mins at room temperature. The cells were permeabilized and blocked with PBS containing 2% BSA and 0.1% Triton-X100. The cells were incubated with a primary antibody against YAP1 (sc-101199) at 1:1000 dilution in a blocking buffer overnight at 4° C. Then, a goat anti-mouse Alexa Fluor 488 conjugated secondary antibody was added for 1 hour at room temperature. […] Images were collected with Olympus FV1200 microscope and analyzed with CellProfiler. […] The cell cytoplasm was determined as the region outside nuclei but within the cell bodies. Then, an average pixel intensity of YAP in the nucleus and cytoplasm was calculated to determine YAP translocation

c1ccc(CNc2ncnc3ccccc23)cc1 [BRD-K43796186, N-benzylquinazolin-4-amine]
Avg. Cell Count z-score (U2OS cells): −0.5708 | YAP1 mRNA z-score (YAP1 mRNA; A375 cells, 6 and 24 hours): ~-0.7 | YAP1 mRNA z-score (YAP1 mRNA; HT29 cells, six hours): 3.16 | YAP1 mRNA (YAP1 mRNA; most cell types in the Connectivity Map): unaffected | TAZ mRNA z-score (TAZ): 2.04 | proliferation (STS-109 human UPS cells): did not affect the proliferation | proliferation [1]: inhibited the proliferation | proliferation [2]: did not affect the proliferation | transcription of Yap1, its sarcoma target genes (Foxm1, Ccl2, Hbegf, Birc5, Rela) and Amot (KP230 cells): did not regulate transcription | YAP1 nuclear localization (YAP1): increased YAP1 nuclear localization

— patent US20230255970A1, “COMPOSITIONS AND METHODS FOR TREATING PROLIFERATIVE DISEASES” (The Broad Institute, Inc., priority 2020, published 2023)
